Assay results: article PMC8281026, “Peptide Based Inhibitors of Protein Binding to the Mitogen-Activated Protein Kinase Docking Groove” (Frontiers in Molecular Biosciences, 2021)
One block for each substance: values may come before it.

Tests used:
HEK-293T cells [1] = test: Cellular uptake by fluorescence microscopy; assay type: cell-based; conditions: fluorescence microscopy
Method: (§1) The cellular uptake of the fluorescent labeled peptide into HEK-293T cells were analyzed by fluorescence microscopy (Cytation 3, BioTek Instruments) and two peptides were further examined by confocal laser scanning microscopy (Zeiss LSM-710 system). Cells were incubated with peptides in serum-free medium (DMEM) for 3 h at 37 °C and then washed twice with 200 μl of serum-free medium before analyzing.

[2] = system: ERK1/2 phosphorylation in HEK-293T cells; test: ERK phosphorylation level in cells by Western-blot after EGF stimulation; assay type: cell-based; conditions: pre-treated 20 μM, 5 h, EGF 100 ng/ml
Method: To study the effect of peptides on the ERK pathway EGF stimulation and Western-blot analysis were used. HEK-293T cells were plated on 48-well plate and were serum-starved for overnight. Then cells were treated with the Cf-peptide at 20µM for 5 h in 100 μL DMEM and then stimulated by addition of EGF (Sigma, E9644) in 100 ng/mL concentration. Stimulation was terminated at different time points by adding 35 μL 4× SDS loading buffer. Cells were lysed and 10 μL of each sample was subjected to SDS-PAGE. […] The intensities of the protein bands were determined by densitometry and monitored after the stimulation in time. […] Activated (i.e., phosphorylated) ERK and p38 were detected by phospho-p44/42 MAPK (ERK1/2) (see above) and phospho-p38 MAPK (Thr180/Tyr182) rabbit primary antibody (Cell Signaling, #9215) in 1:2000 dilution, respectively. The total ERK and p38 content of the samples were determined by anti-p44/42 MAPK (ERK1/2) mouse primary antibody and anti-p38α MAPK mouse mAb (Cell Signaling, #9228), respectively. […] As secondary antibody anti-rabbit antibody (IRDye® 800CW Goat anti-Rabbit IgG, #926-32211) in 1:5,000 and secondary anti-mouse antibody (IRDye® 680CW Goat anti-Mouse IgG, #926-68070 in 1: 10,000 were used. Protein bands were detected and quantified with LI-COR Odyssey® Clx infrared imaging system. Statistical analysis was done using two-sided independent Student’s t-test.

HL-60 cells [3] = test: Cellular uptake by flow cytometry; assay type: cell-based, human; conditions: for fluorescence intensity relative to peptide 9: 90 min, HL-60, flow cytometry, trypsin treated
Method: (§2) To study the cellular uptake of fluorescent labeled peptides and conjugate by flow cytometry, 10^5 HL-60 cells per well were plated on 24-well plates and were incubated for 24 h at 37°C. Then cells were treated with the solution of compounds in serum-free media for 90 min. The cellular uptake was analysed at 1, 5 and 10 µM concentrations. Cells treated with serum-free media were the control. At the end of incubation, treatment solutions were removed, and the cells were treated with 100 μL trypsin for 2 min to remove the membrane proteins in order to eliminate non-specific binding of conjugates. The effect of trypsin was terminated by 900 μL HPMI containing 10% fetal calf serum, and the cell suspensions were transferred into FACS-tubes. After centrifugation at 216g at 4°C for 5 min the supernatant was removed. Then cells were resuspended in 500 µl HPMI, and the intracellular fluorescence intensity of HL-60 cells was monitored (on channel FITC LP505; emission at λ = 505 nm; LP 505, BP 530/30) by flow cytometry (BD LSR II, BD Bioscience, San Jose, CA, equipped with 488 nm; Coherent Sapphire, 22 mW laser.) which is proportional to the cellular uptake. Data were analysed with FACSDiVa 5.0 software. Statistical analysis was done using two-sided independent Student’s t-test.

HL-60 cells [4] = test: Percent of live cells by flow cytometry; assay type: cell-based, human; conditions: 10 µM, 90 min, serum-free media, HL-60, three independent measurements
Method: as §2

HEK-293T cells [5] = test: Intracellular distribution by confocal laser scanning microscopy; assay type: cell-based; conditions: 10 and 20 µM, 3 h
Method: as §1

Substance: Cf-SLQRKKPPWLKLDIPSC(CH2-CO-RRRRRRRR-NH2)-NH2 [compound 3, Cf-labeled octaarginine conjugate]
internalization of the conjugate into HEK-293T cells (HEK-293T cells [1]; after 5 h of treatment at 5 µM (Figure 4 legend: 20 μM, 5 h)): showed internalization | amount of phosphorylated ERK [2]: some reduction

number of live cells (HL-60 cells [4]): 40%
Substance: Dabcyl-RRRPPWLRLDIRRK(Cf)-NH 2 [compound 11]
fluorescence intensity relative to peptide 9 (HL-60 cells [3]; 1 µM): 9.2 times | fluorescence intensity relative to peptide 9 (HL-60 cells [3]; 5 µM): 23.5 times | fluorescence intensity relative to peptide 9 (HL-60 cells [3]; 10 µM): 16.9 times | internalization compared to the peptide without the Dabcyl-group (HL-60 cells [3]; at different concentrations): 10–24 times | internalization into HEK-293T cells (HEK-293T cells [1]; serum-free medium, 37 °C, up to 3 h, Figure 1): increased the peptide internalization | intracellular distribution (HEK-293T cells [5]): more diffuse distribution
